Source: US20240409536A1, “COMPOUNDS AND METHODS FOR MODULATING SPLICING” (REMIX THERAPEUTICS INC., priority 2021, published 2024)
Read-outs that look alike come from different tables or passages of the source.

What was measured:
HTT mRNA = experiment: Gene panel canonical junction qPCR assay, HTT CJ mRNA decrease; type: cell-based, human; settings: Homo sapiens, decrease in CJ mRNA levels, read-out: HTT IC50
Procedure: (§1) Compounds described herein were used to modulate RNA transcript abundance in cells. The expression of a target mRNA was measured by detecting the formation of an exon-exon junction in the canonical transcript (CJ). A compound mediated exon-inclusion event was detected by observing an increase in formation of a new junction with an alternative exon (AJ). Real-time qPCR assays were used to detect these splicing switches and interrogate the potency of various compounds towards different target genes. A high-throughput real time quantitative PCR (RT-qPCR) assay was developed to measure these two isoforms of the mRNA (CJ and AJ) for exemplary genes, such as HTT, SMN2, and MYB, together with a control housekeeping gene, GAPDH or GUSB or PPIA, used for normalization. Briefly, the A673 or K562 cell line was treated with various compounds described herein (e.g., compounds of Formula (I), (I), or (III)). After treatment, the levels of the HTT, MYB, or SMN2 mRNA targets were determined from each sample of cell lysate by cDNA synthesis followed by qPCR.
(§2) The data analysis was performed by first determining the ΔCt vs the housekeeper gene. This ΔCt was then normalized against the DMSO control (ΔΔCt) and converted to RQ (relative quantification) using the 2^(−ΔΔCt) equation. The RQ were then converted to a percentage response by arbitrarily setting an assay window of 3.5 and 4.0 ΔCt for HTT-CJ and MYB-CJ respectively and an assay window of 9 and 3 ΔCt for HTT-AJ and MYB-AJ in 96 well format (50,000 K562 cells/well and 15,000 A673 cells per well) and an assay window of 3 and 4 ΔCt for HTT-CJ and MYB-CJ respectively and an assay window of 5 and 3 ΔCt for HTT-AJ and MYB-AJ respectively in 384 well format (8,000 K562 cells/well example). […] The percentage response was then fitted to the 4 parametric logistic equation to evaluate the concentration dependence of compound treatment. The increase in AJ mRNA is reported as AC50 (compound concentration having […] in AJ increase) while the decrease in CJ mRNA levels is reported as IC50 (compound concentration having 50) response in CJ decrease).
(§3) Additional studies were carried out for a larger panel of genes using the protocol provided above. The junction between flanking upstream and downstream exons was used to design canonical junction qPCR assays. At least one of the forward primer, reverse primer or the CY5-labeled 5′ nuclease probe (with 3′ quencher such as ZEN/Iowa Black FQ) was designed to overlap with the exon junction to capture the CJ mRNA transcript. BLAST was used to confirm the specificity of the probeset and parameters such as melting temperature, GC content, amplicon size, and primer dimer formation are considered during their design. Data for the decrease in CJ mRNA levels for four exemplary genes (HTT, SMN2, MYB, and Target C) analyzed in this panel are reported as IC50 (compound concentration having […] in CJ decrease).
(§4) A summary of the results from the panel is illustrated in Tables 5A and 51B, wherein “A” represents an IC50 of less than 100 nM; “B” represents an IC50 of between 100 nM and 1 μM; and “C” represents an IC50 of between 1 μM and 10 μM; and “D” represents an IC50 of greater than 10 μM.

MYB mRNA = experiment: Gene panel canonical junction qPCR assay, MYB CJ mRNA decrease; type: cell-based, human; settings: decrease in CJ mRNA levels, read-out: MYB IC50
Procedure: as §1, §2, §3, §4

SMN2 mRNA = experiment: Gene panel canonical junction qPCR assay, SMN2 CJ mRNA decrease; type: cell-based, human; settings: decrease in CJ mRNA levels, read-out: SMN2 IC50
Procedure: as §1, §2, §3, §4

Target C mRNA = experiment: Gene panel canonical junction qPCR assay, Target C CJ mRNA decrease; type: cell-based; settings: Homo sapiens, decrease in CJ mRNA levels, read-out: Target C IC50
Procedure: as §1, §2, §3, §4

IC50 (HTT mRNA) [µM]	IC50 (MYB mRNA; Homo sapiens) [µM]	IC50 (SMN2 mRNA; Homo sapiens) [µM]	IC50 (Target C mRNA) [µM]	IC50 (MYB mRNA) [µM]	IC50 (SMN2 mRNA) [µM]	SMILES
> 10	1 to 10	1 to 10	1 to 10			Cc1cn2cc(NC(=O)c3sc(C4CCN(C)CC4)cc3F)cc(F)c2n1 [Compound 618]
0.1 to 1	0.1 to 1	1 to 10	1 to 10			Cc1cn2cc(NC(=O)c3sc([C@H]4CCN[C@H](C)C4)cc3F)cc(F)c2n1 [Compound 592]
> 10	1 to 10	> 10	> 10			Cc1cn2cc(NC(=O)c3sc(N4CCC(NC(C)(C)C)CC4)cc3F)cc(F)c2n1 [Compound 614]
> 10	1 to 10	> 10	1 to 10			Cc1cn2cc(NC(=O)c3sc(N4CC5(CNC5)C4)cc3F)cc(F)c2n1 [Compound 607]
1 to 10			1 to 10	1 to 10	1 to 10	Cc1cn2cc(NC(=O)c3sc(C4CCNCC4)cc3F)cc(F)c2n1 [Compound 617]
> 10	1 to 10	> 10	> 10			Cc1cn2cc(NC(=O)c3ccc(C4CCNCC4)s3)cc(F)c2n1 [Compound 647]
> 10	1 to 10	> 10	> 10			Cc1cn2cc(NC(=O)c3sc(N4CC5(CN(C)C5)C4)cc3F)cc(F)c2n1 [Compound 608]
> 10	0.1 to 1	> 10	1 to 10			Cc1cn2cc(NC(=O)c3sc(N4CCC(N(C)C)C4)cc3F)cc(F)c2n1 (stereo not shown) [Compound 611]
0.1 to 1	0.1 to 1	1 to 10	0.1 to 1			Cc1cn2nc(NC(=O)c3sc([C@H]4CCN[C@@H](C)C4)cc3F)cc(C)c2n1 [Compound 577]
0.1 to 1	0.1 to 1	1 to 10	1 to 10			Cc1cn2cc(NC(=O)c3sc(C4CC(C)(C)NC(C)(C)C4)cc3F)cc(F)c2n1 [Compound 621]
> 10	0.1 to 1	> 10	> 10			Cc1cn2cc(NC(=O)c3sc(N4CCN(C)C(C)C4)cc3F)cc(F)c2n1 (stereo not shown) [Compound 602]
0.1 to 1	< 0.1	0.1 to 1	0.1 to 1			Cc1cn2nc(NC(=O)c3sc([C@@H]4CCN[C@H](C)C4)cc3F)cc(C)c2n1 [Compound 576]
1 to 10	1 to 10	1 to 10	1 to 10			CC1CC(c2cc(F)c(C(=O)Nc3cc(F)c4cn(C)nc4c3)s2)CCN1 (stereo not shown) [Compound 625]
0.1 to 1	< 0.1	1 to 10	1 to 10			Cc1cn2cc(NC(=O)c3sc([C@@H]4CCN[C@H](C)C4)cc3F)cc(F)c2n1 [Compound 589]
1 to 10	0.1 to 1	> 10	> 10			Cc1cn2cc(NC(=O)c3sc(N4CCC(N(C)C)CC4)cc3F)cc(F)c2n1 [Compound 613]
0.1 to 1	< 0.1	1 to 10	1 to 10			Cc1cn2cc(NC(=O)c3cc(Cl)c(N4CCNC(C)C4)s3)cc(F)c2n1 (stereo not shown) [Compound 660]
1 to 10	0.1 to 1	1 to 10	1 to 10			Cc1cn2cc(NC(=O)c3sc(N4CCC(N5CCCC5)C4)cc3F)cc(F)c2n1 (stereo not shown) [Compound 609]
0.1 to 1	< 0.1	1 to 10	0.1 to 1			Cc1cn2cc(NC(=O)c3sc([C@@H]4CCN[C@@H](C)C4)cc3F)cc(F)c2n1 [Compound 591]
0.1 to 1	0.1 to 1	> 10	1 to 10			Cc1cn2cc(NC(=O)c3sc(C4CCNCC4)cc3Cl)cc(F)c2n1 [Compound 663]

More lines, now with the values behind:

SMILES	IC50 (HTT mRNA) [µM]	IC50 (MYB mRNA; Homo sapiens) [µM]	IC50 (SMN2 mRNA; Homo sapiens) [µM]	IC50 (Target C mRNA) [µM]	IC50 (MYB mRNA) [µM]	IC50 (SMN2 mRNA) [µM]
CC1=NC2C(F)=CC(NC(=O)c3sc(C4CCNCC4)cc3F)=CC2S1 (stereo not shown) [Compound 658]	> 10	> 10	> 10	> 10		
Cc1cn2cc(NC(=O)c3sc(N4CCNC(C)C4)c(Cl)c3Cl)cc(F)c2n1 (stereo not shown) [Compound 659]	0.1 to 1	0.1 to 1	1 to 10	1 to 10		
Cc1cn2nc(NC(=O)c3sc(N4CCNC(C)C4)cc3F)nc2c(C)n1 (stereo not shown) [Compound 642]	> 10	0.1 to 1	> 10	> 10		
CC1=NC2C(F)=CC(NC(=O)c3sc(C4CCNCC4)cc3F)=CC2O1 (stereo not shown) [Compound 657]	> 10	> 10	> 10	> 10		
Cc1cn2cc(NC(=O)c3sc(N4CCNC(C)C4)cc3F)ncc2n1 (stereo not shown) [Compound 640]	> 10	0.1 to 1	0.1 to 1	1 to 10		
Cc1cn2nc(NC(=O)c3sc(C4CCNCC4)cc3F)nc2c(C)n1 [Compound 665]	< 0.1	< 0.1	1 to 10	0.1 to 1		
Cc1cn2cc(NC(=O)c3sc(N4CCNC(C)C4)cc3F)c(C)cc2n1 (stereo not shown) [Compound 639]	1 to 10	0.1 to 1	0.1 to 1	1 to 10		
Cc1cn2cc(-c3cc(F)c(C(=O)N[C@H]4CCN[C@H](C)C4)s3)nc2c(C)n1 [Compound 583]	> 10	1 to 10	> 10	> 10		
Cc1cn2cc(NC(=O)c3sc(N4CCNC(C)C4)cc3F)nc2c(C)n1 (stereo not shown) [Compound 641]	> 10	1 to 10	> 10	> 10		
Cc1cn2cc(NC(=O)c3sc(N(C)C4CC(C)(C)NC(C)(C)C4)cc3F)cc(F)c2n1 [Compound 622]	0.1 to 1	< 0.1	1 to 10	0.1 to 1		
Cc1cn2nc(NC(=O)c3sc(N4CCNC(C)C4)cc3F)cc2c(C)n1 (stereo not shown) [Compound 643]	> 10	> 10	> 10	> 10		
Cc1nc2c(F)cc(NC(=O)c3sc(N4CCNC(C)C4)cc3F)cc2o1 (stereo not shown) [Compound 637]	> 10	> 10	> 10	> 10		
COc1cc(N2CCNCC2=O)sc1C(=O)Nc1cc(F)c2nc(C)cn2c1 [Compound 662]	> 10	> 10	> 10	> 10		
Cc1cn2cc(NC(=O)c3sc(N4CC(C)(C)NC(C)(C)C4)cc3F)cc(F)c2n1 [Compound 606]	1 to 10	0.1 to 1	> 10	1 to 10		
Cc1cn2cc(NC(=O)c3sc(C4CCNCC4)c(Cl)c3Cl)cc(F)c2n1 [Compound 648]	> 10	> 10	> 10	> 10		
